In patent US8815857B2 (Boehringer Ingelheim International GmbH, priority 2011, dated 2014):
≈ marks a conversion by molar mass, not a printed value.

How the values were obtained:
[1] = biological target: T1, human soluble guanylate cyclase alpha 1 and beta 1 subunits (sGC) stably expressed in Chinese hamster ovary cells (Homo sapiens, UniProt Q02108+Q02153); assay: sGC cellular activator assay: cGMP in CHO cells expressing human sGC, preincubated with ODQ; type: cell-based; details: 40 microM ODQ preincubation, 30 min at room temperature, presence or absence of 50% human serum not given, read-out: EC50 nM, Activity of Compounds in Cellular Assay
T1 construct: expressed in transfected cells; host or cells: Chinese hamster ovary cells, stably transfected
T1 sequence (Q02108 1-690 partner): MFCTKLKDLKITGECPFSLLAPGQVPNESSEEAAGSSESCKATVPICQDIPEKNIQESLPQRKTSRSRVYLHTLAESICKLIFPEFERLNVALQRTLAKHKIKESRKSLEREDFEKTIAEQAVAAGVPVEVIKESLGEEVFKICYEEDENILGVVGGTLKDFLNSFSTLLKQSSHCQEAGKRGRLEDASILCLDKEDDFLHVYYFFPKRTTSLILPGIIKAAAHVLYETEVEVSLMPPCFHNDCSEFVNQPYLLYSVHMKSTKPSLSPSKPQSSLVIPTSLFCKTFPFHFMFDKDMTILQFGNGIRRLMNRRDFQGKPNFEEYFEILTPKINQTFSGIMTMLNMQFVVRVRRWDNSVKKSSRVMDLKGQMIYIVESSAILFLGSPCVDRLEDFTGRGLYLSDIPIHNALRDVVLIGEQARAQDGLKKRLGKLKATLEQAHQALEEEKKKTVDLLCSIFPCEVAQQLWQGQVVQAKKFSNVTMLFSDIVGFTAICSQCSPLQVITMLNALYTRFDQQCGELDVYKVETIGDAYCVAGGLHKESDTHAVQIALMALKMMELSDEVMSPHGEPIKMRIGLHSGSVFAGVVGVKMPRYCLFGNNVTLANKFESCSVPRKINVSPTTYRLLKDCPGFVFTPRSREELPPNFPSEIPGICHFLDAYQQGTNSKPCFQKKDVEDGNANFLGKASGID
T1 sequence (Q02153 1-619): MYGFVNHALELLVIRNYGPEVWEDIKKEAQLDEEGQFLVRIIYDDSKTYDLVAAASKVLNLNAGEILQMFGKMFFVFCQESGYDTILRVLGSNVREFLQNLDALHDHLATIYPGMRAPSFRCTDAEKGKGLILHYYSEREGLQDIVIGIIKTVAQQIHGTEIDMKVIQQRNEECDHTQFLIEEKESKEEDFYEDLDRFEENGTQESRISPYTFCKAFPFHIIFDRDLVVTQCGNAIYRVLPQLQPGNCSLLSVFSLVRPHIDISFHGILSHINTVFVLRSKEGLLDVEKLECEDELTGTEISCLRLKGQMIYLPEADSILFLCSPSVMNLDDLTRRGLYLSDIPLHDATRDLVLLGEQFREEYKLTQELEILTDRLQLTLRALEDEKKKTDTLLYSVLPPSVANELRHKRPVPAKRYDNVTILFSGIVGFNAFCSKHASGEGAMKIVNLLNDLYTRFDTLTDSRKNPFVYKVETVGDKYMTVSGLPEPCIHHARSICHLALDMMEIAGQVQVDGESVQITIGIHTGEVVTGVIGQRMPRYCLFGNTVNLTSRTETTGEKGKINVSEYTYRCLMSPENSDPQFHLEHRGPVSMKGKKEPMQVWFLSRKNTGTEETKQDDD
How it was run: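 EC50 values derive from HTRF cGMP measurement after test compounds act for thirty minutes at room temperature, with or without 50% human serum. Before dosing, the sGC-transfected CHO cells spend one hour with the inhibitor ODQ (40 microM) in IBMX- and 0.1% BSA-containing buffer.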

[2] = Assessment of solubility: HT solubility in pION buffer, UV spectrophotometry; details: for solubility: kinetic from dmso stock
Method: Solubility is measured by the following method.
DMSO stock samples at 10 mM concentration are prepared. […] The samples are pierced and 100 ul of thawed samples are transferred into the PCR plate for analysis. Each sample is run in duplicate at each pH (pH 4.5 and 7.4). Up to 95 samples can be run in replicate at 2 pH's+1 DMSO (blank).
Preparation of pH 4.5 and 7.4 Buffers:
• pH 4.5 buffer:—To 12.5 of system solution (pION)qs to 500 mL of distilled water (pH 2.85-2.90); adjust the pH to pH 4.5 with 0.5 N NaOH. • pH 7.4 buffer: To 12.5 of system solution (pION)qs to 500 mL of distilled water (pH 2.85-2.90); adjust the pH to pH 7.4 with 0.5N NaOH. […] Procedure: Preparation of UV Blank Plate:
75 ul of buffer (pH 7.4 or pH 4.5) is added to UV plate followed by addition of 70 ul of N-propanol. The solution is mixed and the blank spectrum is read using spectrophotometer.
Preparation of Reference UV Plate:
10 ul of each stock sample (including DMSO control) is added to 190 ul of N-propanol to prepare the reference stock plate. Reference stock samples are mixed and 5 ul of each stock sample is added to UV blank plate after it is read spectrophotometrically. The reference stock sample is mixed with blank solution in UV plate and the reference spectrum is read using UV spectrophotometer.
Preparation of Sample for Incubation:
Solubility at pH 7.4:6 ul of each stock sample (including DMSO control) is added to the storage plate containing 600 ul of pH 7.4 buffer, mixed and incubated for 16-19 h. The plate is sealed well during the incubation process. The DMSO content in the sample is 1.0%. The concentration in deep well plates is 100 uM
6 ul of each stock sample (including DMSO control) is added to the deep well plate containing 600 ul of pH 4.5 buffer, mixed and incubated for 16-19 h. The plate is sealed well during the incubation process. The DMSO content in the sample is 1.0%. The concentration in deep well plates is 100 uM
Preparation of Sample UV Plate:
At the end of the incubation period, 100 uL of sample from the storage plate is vacuum filtered using a filter plate. This step wets the filters and the filtrate is discarded. Another 200 ul of the sample from the deep well plate is vacuum filtered using the same filter block but a clean filter plate. 75 ul of the filtrate from the filter plate is transferred to a UV sample plate. 75 ul of N-propanol is added to this UV plate. The solution is mixed and the spectrum is read using the UV spectrophotometer.
The spectra collected for blank, reference and sample from 250-498 nm is analyzed using pION software. If the sample precipitates out, the solubility is reported as XX μg/ml.

[3] = pH 6.8, aqueous buffer, Solubility (pH 6.8), pH 6.8
[4] = pION system solution buffer, pH 4.5, pH 4.5, aqueous buffer, Solubility (pH 4.5), pH 4.5 buffer, 16-19 h incubation, 1.0% DMSO
[5] = pION system solution buffer, pH 7.4, pH 7.4, aqueous buffer, Solubility (pH 7.4), pH 7.4 buffer, 16-19 h incubation, 1.0% DMSO

Structure (SMILES)	EC50 [1] [nM]	solubility [2, 3] [µg/mL]	solubility [2, 4] [µg/mL]	Solubility (pH 4.5) ([2]; pH 4.5 buffer, 16-19 h incubation, 1.0% DMSO) [μg/mL]	solubility [2, 5] [µg/mL]
CO[C@H]1CCN(C(=O)c2ccc(COc3ccc(C)cc3-c3csc(N4C[C@H]5CC[C@@H](C4)[C@H]5C(=O)O)n3)c(C)c2)C1 [Compound 328]	29	62 (≈ 108 µM)	< 0.1	–	–
CO[C@@H]1CCN(C(=O)c2ccc(COc3ccc(C)cc3-c3csc(N4C[C@H]5CC[C@@H](C4)[C@H]5C(=O)O)n3)c(C)c2)C1 [Compound 329]	23	56 (≈ 97.3 µM)	< 0.1	–	–
Cc1ccc(OCc2ccc(C(=O)N(C)CC#N)cc2C)c(-c2csc(N3C[C@H]4CC[C@@H](C3)[C@H]4C(=O)O)n2)c1 [Compound 330]	52	40 (≈ 73.4 µM)	< 0.1	–	–
Cc1ccc(OCc2ccc(C(=O)N(C)Cc3cncn3C)cc2C)c(-c2csc(N3C[C@H]4CC[C@@H](C3)[C@H]4C(=O)O)n2)c1 [Compound 331]	140	47 (≈ 78.4 µM)	42 (≈ 70 µM)	–	–
CCOC1CCN(C(=O)c2ccc(COc3ccc(C)cc3-c3csc(N4C[C@H]5CC[C@@H](C4)[C@H]5C(=O)O)n3)c(C)c2)C1 (some centres unmarked) [Compound 332]	30	35 (≈ 59.3 µM)	0.14 (≈ 0.237 µM)	–	–
Cc1ccc(OCc2ccc(C(=O)N3CCn4cnnc4C3)cc2C)c(-c2csc(N3C[C@H]4CC[C@@H](C3)[C@H]4C(=O)O)n2)c1 [Compound 333]	110	59 (≈ 98.5 µM)	1.1 (≈ 1.84 µM)	–	–
Cc1ccc(OCc2ccc(C(=O)N(C)Cc3ncc[nH]3)cc2C)c(-c2csc(N3C[C@H]4CC[C@@H](C3)[C@H]4C(=O)O)n2)c1 [Compound 334]	160	24 (≈ 41 µM)	11 (≈ 18.8 µM)	–	–
CCOCCN(C)C(=O)c1ccc(COc2ccc(C)cc2-c2csc(N3C[C@H]4CC[C@@H](C3)[C@H]4C(=O)O)n2)c(C)c1 [Compound 335]	70	49 (≈ 84.8 µM)	0.4 (≈ 0.692 µM)	–	–
Cc1ccc(OCc2ccc(C(=O)N3CCCC(C)(O)C3)cc2C)c(-c2csc(N3C[C@H]4CC[C@@H](C3)[C@H]4C(=O)O)n2)c1 (some centres unmarked) [Compound 336]	79	6.1 (≈ 10.3 µM)	0.16 (≈ 0.271 µM)	–	–
Cc1ccc(OCc2ccc(C(=O)N3CCCC(C#N)C3)cc2C)c(-c2csc(N3C[C@H]4CC[C@@H](C3)[C@H]4C(=O)O)n2)c1 (some centres unmarked) [Compound 337]	14	1.5 (≈ 2.57 µM)	< 0.1	–	–
COCCCN(C)C(=O)c1ccc(COc2ccc(C)cc2-c2csc(N3C[C@H]4CC[C@@H](C3)[C@H]4C(=O)O)n2)c(C)c1 [Compound 338]	43	58 (≈ 100 µM)	0.13 (≈ 0.225 µM)	–	–
Cc1ccc(OCc2ccc(C(=O)N(C)Cc3nccn3C)cc2C)c(-c2csc(N3C[C@H]4CC[C@@H](C3)[C@H]4C(=O)O)n2)c1 [Compound 339]	41	48 (≈ 80 µM)	32 (≈ 53.4 µM)	–	–
Cc1ccc(OCc2ccc(C(=O)N3C[C@H]4CC[C@@H](C3)O4)cc2C)c(-c2csc(N3C[C@H]4CC[C@@H](C3)[C@H]4C(=O)O)n2)c1 [Compound 340]	19	0.26 (≈ 0.442 µM)	< 0.1	–	–
Cc1ccc(OCc2ccc(C(=O)N3CC[C@@H](O)C3)cc2C)c(-c2csc(N3C[C@H]4CC[C@@H](C3)[C@H]4C(=O)O)n2)c1 [Compound 341]	110	63 (≈ 112 µM)	1.1 (≈ 1.96 µM)	–	–
Cc1ccc(OCc2ccc(C(=O)N(C)CC3(CO)CC3)cc2C)c(-c2csc(N3C[C@H]4CC[C@@H](C3)[C@H]4C(=O)O)n2)c1 [Compound 342]	110	55 (≈ 93.3 µM)	< 0.1	–	–
Cc1ccc(OCc2ccc(C(=O)N(C)Cc3ccn(C)n3)cc2C)c(-c2csc(N3C[C@H]4CC[C@@H](C3)[C@H]4C(=O)O)n2)c1 [Compound 343]	46	52 (≈ 86.7 µM)	< 0.1	–	–
COCCN(C)C(=O)c1ccc(COc2ccc(C)cc2-c2csc(N3C[C@H]4CC[C@@H](C3)[C@H]4C(=O)O)n2)c(C)c1 [Compound 344]	23	61 (≈ 108 µM)	–	0.1	> 58
Cc1ccc(OCc2ccc(C(=O)N(C)CC(=O)N(C)C)cc2C)c(-c2csc(N3C[C@H]4CC[C@@H](C3)[C@H]4C(=O)O)n2)c1 [Compound 345]	130	66 (≈ 112 µM)	4 (≈ 6.77 µM)	–	> 58
Cc1ccc(OCc2ccc(C(=O)N(C)CC(C)(C)CO)cc2C)c(-c2csc(N3C[C@H]4CC[C@@H](C3)[C@H]4C(=O)O)n2)c1 [Compound 346]	67	36 (≈ 60.8 µM)	0.46 (≈ 0.777 µM)	–	> 54
CNC(=O)CN(C)C(=O)c1ccc(COc2ccc(C)cc2-c2csc(N3C[C@H]4CC[C@@H](C3)[C@H]4C(=O)O)n2)c(C)c1 [Compound 347]	260	70 (≈ 121 µM)	5.8 (≈ 10.1 µM)	–	> 53
Cc1ccc(OCc2ccc(C(=O)N(C)CCC(C)(C)O)cc2C)c(-c2csc(N3C[C@H]4CC[C@@H](C3)[C@H]4C(=O)O)n2)c1 [Compound 348]	41	71 (≈ 120 µM)	0.27 (≈ 0.456 µM)	–	37 (≈ 62.5 µM)
Cc1ccc(OCc2ccc(C(=O)N3CCN(C)C(=O)C3)cc2C)c(-c2csc(N3CCC(C(=O)O)CC3)n2)c1 [Compound 349]	40	69 (≈ 123 µM)	6.5 (≈ 11.6 µM)	–	–
Cc1ccc(OCc2ccc(CN(C)[C@@H]3CCS(=O)(=O)C3)cc2C)c(-c2csc(N3C[C@H]4CC[C@@H](C3)[C@H]4C(=O)O)n2)c1 [Compound 351]	10	1.3 (≈ 2.13 µM)	0.21 (≈ 0.344 µM)	–	–
Cc1ccc(OCc2ccc(CN3CCN(C)C(=O)C3)cc2C#N)c(-c2csc(N3C[C@H]4CC[C@@H](C3)[C@H]4C(=O)O)n2)c1 [Compound 354]	3.8	57 (≈ 97.3 µM)	0.42 (≈ 0.717 µM)	–	–
Cc1ccc(OCc2ccc(CN3CCOC(C#N)C3)cc2C#N)c(-c2csc(N3C[C@H]4CC[C@@H](C3)[C@H]4C(=O)O)n2)c1 (some centres unmarked) [Compound 355]	9.2	7 (≈ 12 µM)	0.77 (≈ 1.32 µM)	–	–
Cc1ccc(OCc2ccc(CN3C[C@@H](C)O[C@@H](C)C3)cc2C#N)c(-c2csc(N3C[C@H]4CC[C@@H](C3)[C@H]4C(=O)O)n2)c1 [Compound 356]	24	1.6 (≈ 2.73 µM)	2.7 (≈ 4.6 µM)	–	–
